Key:
[1] = Stability in DMSO monitored by UV-Vis spectroscopy; assay type: physicochemical; conditions: ambient temperature, monitored ~1 to 2 h
Protocol: The UV-Vis spectra of all complexes were recorded in DMSO at ambient temperature, immediately after dissolution, as this is the medium used for the biological assays. The UV-Vis spectrum of 1 will be included in a publication that follows. The relevant spectra of complexes 2, 3, 5 and 6 are shown below in Figure 6 and Figure 7, respectively, while that of complex 7 (concentrated solution) is included in Figure S9.
The UV-Vis absorption spectra of the light-yellow solutions of complexes 2, 3, 5 and 6 were monitored over a period of ~1 to 2 h (not shown) to ensure stability for the relevant biological assays. […] The electronic spectra of all complexes display four rather identical absorption bands in the range of 259–334 nm that can be attributed to π → π* and n → π* or charge-transfer transitions. These bands display medium to weak molar extinction coefficients and are in the expected region for similar complexes. For the cobalt(II) complex 2, the very low intensity and rather broad absorption, centered at ~680 nm can be attributed to d-d transitions. Also for the copper(II) complex 3, the broad absorption band in the range of 660–870 nm, is attributed to d-d transition.

[2] = system: lyso-PAF:acetyl-CoA acetyltransferase (lyso-PAF-AT); test: Lyso PAF-AT activity assay on leukocyte homogenate; assay type: biochemical; conditions: rabbit leukocyte homogenate; Figure 9
Protocol: The experiment on the inhibitory effect of each compound of interest against the washed rabbit platelets (WRPs) aggregation was carried out as per the already described method. The platelets were from male New Zealand white rabbits (about 20), individually housed in stainless steel cages in an air-conditioned room (19 ± 1 °C, 55 ± 5% humidity on a 12/12 h artificial light/dark cycle). Blood samples were drawn from the main ear artery. Microliters of PAF in a final concentration of about 10^–10 M were added to the cuvette of the aggregometer, and the height of the platelet aggregation was monitored. […] Dithiothreitol-insensitive PAF choline phosphotransferase, lyso-PAF:acetyl-CoA acetyltransferase and PAF-acetylhydrolase activity assays were performed on the homogenates of rabbit leukocytes while the activity of lipoprotein-associated phospholipase A2 was assessed on plasma as previously described. […] All results were expressed as mean ± standard deviation (SD). […] Data were analyzed using a statistical software package (SPSS for Windows, 16.0, 2007, SPSS Inc., Chicago, IL, USA) and Microsoft Excel 2007. […]
The extraction, purification, and determination of the produced in each assay PAF was carried out as previously described. […] PAF bands were scrapped off, and extracted and the amount of PAF was determined by the washed rabbit platelet aggregation assay. […]

[3] = system: human lymphocytes cultures; test: Toxicity in healthy cells (human lymphocytes cultures); assay type: cell-based
[4] = biological target: T1, Lipoprotein-associated phospholipase A2 (Lp-PLA2) (Oryctolagus cuniculus, UniProt G1SE06); test: Plasma PAF-AH (LpPLA2) activity assay; assay type: biochemical, rabbit; conditions: in increased concentrations, Figure 10
T1 construct: from tissue; host or cells: rabbit plasma
T1 sequence (G1SE06 22-423): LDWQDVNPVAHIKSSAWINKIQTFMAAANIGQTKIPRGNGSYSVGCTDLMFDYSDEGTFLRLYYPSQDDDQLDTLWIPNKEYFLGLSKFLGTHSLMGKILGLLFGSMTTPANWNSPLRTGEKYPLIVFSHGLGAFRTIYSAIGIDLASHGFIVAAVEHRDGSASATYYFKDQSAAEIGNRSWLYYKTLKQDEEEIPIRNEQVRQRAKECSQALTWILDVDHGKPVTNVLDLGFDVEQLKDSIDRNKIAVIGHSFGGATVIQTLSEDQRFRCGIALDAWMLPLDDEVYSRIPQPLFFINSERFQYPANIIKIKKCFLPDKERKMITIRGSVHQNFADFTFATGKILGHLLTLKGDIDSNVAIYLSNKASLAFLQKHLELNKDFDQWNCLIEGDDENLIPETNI
Protocol: The experiment on the inhibitory effect of each compound of interest against the washed rabbit platelets (WRPs) aggregation was carried out as per the already described method. The platelets were from male New Zealand white rabbits (about 20), individually housed in stainless steel cages in an air-conditioned room (19 ± 1 °C, 55 ± 5% humidity on a 12/12 h artificial light/dark cycle). Blood samples were drawn from the main ear artery. Microliters of PAF in a final concentration of about 10^–10 M were added to the cuvette of the aggregometer, and the height of the platelet aggregation was monitored. […] Dithiothreitol-insensitive PAF choline phosphotransferase, lyso-PAF:acetyl-CoA acetyltransferase and PAF-acetylhydrolase activity assays were performed on the homogenates of rabbit leukocytes while the activity of lipoprotein-associated phospholipase A2 was assessed on plasma as previously described. […] All results were expressed as mean ± standard deviation (SD). […] Data were analyzed using a statistical software package (SPSS for Windows, 16.0, 2007, SPSS Inc., Chicago, IL, USA) and Microsoft Excel 2007.
Plasma PAF-AH was determined in rabbit plasma by the trichloroacetic acid precipitation method using [3H] […] The [3H]-acetate released into the aqueous phase was measured on a liquid scintillation counter. […]

[Fe(pqx)Cl2]2 [Complex 6]
stability of UV-Vis absorption spectra in DMSO [1]: not modified over time

mer-[Cr(pqx)Cl3(H2O)] [Complex 1]
inhibition of the specific activity of lyso-PAF-AT [2]: inhibit in a dose-dependent way | toxicity in healthy cells [3]: almost inactive (non-toxic)

[Co(pqx)Cl2(DMF)] [Complex 2]
stability of UV-Vis absorption spectra in DMSO [1]: not modified over time

CS(C)=O.[Cl][Cu][Cl].c1ccc(-c2cnc3ccccc3n2)nc1 [Complex 3, [Cu(pqx)Cl2(DMSO)]]
stability of UV-Vis absorption spectra in DMSO [1]: not modified over time

[Ni(pqx)Cl2]2 [Complex 7]
inhibition of the specific activity of lyso-PAF-AT [2]: inhibit in a dose-dependent way | inhibition of the specific activity of Lp-PLA2 [4]: disables the enzymatic activity

[Mn(pqx)(H2O)2Cl2]2 [Complex 5]
stability of UV-Vis absorption spectra in DMSO [1]: not modified over time

[Cl][Zn][Cl].c1ccc(-c2cnc3ccccc3n2)nc1 [Complex 4, [Zn(pqx)Cl2]]
toxicity in healthy cells [3]: almost inactive (non-toxic)

Source: article PMC10574351, “First-Row Transition Metal Complexes Incorporating the 2-(2′-pyridyl)quinoxaline Ligand (pqx), as Potent Inflammatory Mediators: Cytotoxic Properties and Biological Activities against the Platelet-Activating Factor (PAF) and Thrombin” (Molecules, 2023)
